Literature values as cited in patent EP0523846A2, “1,4-Benzodiazepines with 5-membered heterocyclic rings” (MERCK & CO. INC., priority 1991, dated 1993).

Conditions: background statement citing Deschodt-Lanckman et al., Reg. Pept., 2, 15 (1981)

## CSCC[C@H](NC(=O)[C@H](Cc1ccc(OS(=O)(=O)O)cc1)NC(=O)[C@@H](N)CC(=O)O)C(=O)NCC(=O)N[C@@H](Cc1c[nH]c2ccccc12)C(=O)N[C@@H](CCSC)C(=O)N[C@@H](CC(=O)O)C(=O)N[C@@H](Cc1ccccc1)C(N)=O [CCK-8s, H-Asp-Tyr(SO₃H)-Met-Gly-Trp-Met-Asp-Phe-NH₂]
  half-life: less than 1 hour
